System: murine 3T3 fibroblasts
Conditions: 0.05% sodium azide in PBS; cells stained red
Protocol: Hydrogel microstructures encapsulating murine 3T3 fibroblasts were fabricated using proximity photolithography. A PEG-diacrylate (PEG-DA, MW 575, Sigma-Aldrich or MW 4000, Polysciences) precursor solution containing 0.5% (w/w) DAROCUR 1173 (1-phenyl-2-hydroxy-2-methyl-1-propanone, Ciba Specialty Chemicals) as a photoinitiator was mixed with a cell suspension in cell culture media to produce a cell density about 4 to 5×10^6 cells/mL in the gel precursor solution. Fibroblasts were cultured on tissue culture polystyrene in Dulbecco's modified Eagle media (DMEM with 4.5 g/L glucose and 10% FBS, Sigma-Aldrich) and incubated at 37° C. in 5% CO2 and 95% air until near confluence. Cells were detached from culture flasks by trypsinization with 0.25% trypsin and 0.13% EDTA in phosphate buffered saline. Cells were transferred back to cell culture media and then added to the gel precursor solution. […]
The viability of individual cells in hydrogel microstructures with diameters of 600 μm and 50 μm was investigated using Live/Dead Viability/Cytotoxicity fluorescence assay (Molecular Probes, Inc.) that stains live cells green and dead cells red. […]
The viability of cells encapsulated in hydrogel was also measured using an MTT (3(4,5-dimethylthiazol-2-yl)-2,5-diphenyl tetrazolium bromide) assay.

[N-]=[N+]=[N-] [sodium azide]
effect on encapsulated cells (control, LIVE/DEAD staining): killed the cells

Source: patent US20030175824A1, “Drug candidate screening systems based on micropatterned hydrogels and microfluidic systems” (priority 2002, published 2003)
